Legend:
Assay type in all cases: cell-based
[1] = system: Primary human epidermal keratinocytes, HeKa; assay: HeKa cytokine release (IL-8) assay; conditions: 6 h, read-out: HeKa cytokine release (IL-8) Rel EC50 range
Procedure: Primary human epidermal keratinocytes, HeKa, were seeded (10.000 cells/well) in 96-well plates the day before the assay. Test compounds were diluted in DMSO (dimethyl sulfoxide) and further diluted in assay medium and pipetted into wells of 96 well-plates containing HeKa cells. The plates were incubated for 6 h at 37° C. in humidified air with 5% CO2. Plates are centrifuged briefly to spin down cells at 4° C., the supernatant was removed and analysed by Meso Scale Discovery (MSD) 4-spot cytokine assay (Pro-inflammatory II Ultra Sensitive kit, MSD, MD, USA). The MSD assay employs a sandwich immunoassay format where capture antibodies were coated in a patterned array on the bottom of the wells of a 4-Spot-Multi-MSD plate. Standard samples were incubated in the MULTI-SPOT plates as well, and the cytokine (IL-8) binds to its corresponding capture antibody spot. The cytokine level was quantitated on a SECTOR™ Imager using a cytokine-specific Detection Antibody labelled with MSD SULFO-TAG™ reagent.
(§1) Test compound titration curves were fitted to a four-parameter sigmoidal curve after normalizing the effect of the test compound to the effect of the positive control (1.5×10^−7 M PEP0005). Rel EC50 denotes the concentration of test compound producing an effect that is midway between the fitted top and bottom.

[2] = system: PMN's (polymorphonuclear leukocytes); assay: Neutrophil oxidative burst assay; conditions: Leukocyte, 40 min, read-out: Neutrophil oxidative burst Rel EC50 range
Procedure: PMN's (polymorphonuclear leukocytes) were isolated and purified from fresh buffy coats by sequential sedimentation, density centrifugation and lysis of contaminating erythrocytes. Buffy coats were incubated with 2% methocel for 30-45 min to differentially sediment red blood cells. The leukocyte-rich supernatant was transferred to lymphoprep tubes to remove mononuclear cells by density centrifugation (400×g, 30 min). The pellet was resuspended and any remaining erythrocytes lysed using 0.2% NaCl for 30 sec before restoring isotonicity by the addition of 1.2% NaCl. This step was repeated until the cell pellet appears relatively free of red blood cells. Cells were resuspended in DPBS (Dulbecco's Phosphate Buffered Saline) (w.o. Ca^2+, Mg^2+) and the concentration adjusted to 1.4×10^6 cells/ml in HBSS (Hanks Balanced Salt solution) (w Ca^2+, Mg^2+) containing 0.1% BSA (Bovine Serum Albumin) and 5 mM glucose just prior to assay initiation. Titrated reference and test compounds were pre-mixed with HE (Hydroethidine) (10 μM final assay concentration) before addition to 96-well plates containing 2.5×10^5 cells. Following 40 min incubation at RT, changes in the respiratory burst was estimated by measuring fluorescence at 579 nm (excitation: 485 nm) using an Envision plate reader.
as §1, with “(5×10^−7” for “(1.5×10^−7”, “bottom. Abs EC50 is the concentration of test compound that provokes a response corresponding to 50% of the maximal effect associated with the positive control (5×10^−7 M PEP0005).” for “bottom.”

[3] = system: HeLa cells (ATCC CCL-002); assay: Necrosis assay; conditions: Homo sapiens, 0.5 h, read-out: HeLa necrosis EC50 range
Procedure: HeLa cells (ATCC CCL-002) were grown in minimal essential medium (Invitrogen catalog no. 42360) containing 10% fetal bovine serum, 100 IU/ml penicillin and 100 μg/ml streptomycin. 4,000-6,000 cells were seeded into 96-well black ViewPlates-plates, clear bottom, (Perkin Elmer) in 100 μl medium and incubated overnight. Compounds were dissolved and pre-diluted in DMSO in 96-well polypropylene plates (Greiner) in a concentration range of 15 μM to 600 μM. At the time of the experiment cell plates were placed on heating blocks at 37° C., medium was removed and 40 μl fresh, pre-warmed medium was added per well. Cells were incubated for 15 min before addition of compounds. In parallel, 3 μl of compounds were diluted with 197 μl growth medium on a Tecan freedom-EVO pipetting station using 250 μl/s pipetting speed, in order to ensure effective mixing of the highly concentrated compound solutions with the aqueous phase. These pre-dilution plates were then equilibrated on heating blocks at 37° C. for 10 min. 80 μl pre-diluted compound were transferred manually to the corresponding wells containing HeLa cells yielding compound concentrations of 10 μM to 400 μM. Control conditions were 1% DMSO in growth medium (100% viability) and 400 μM ingenol mebutate in growth medium (0% viability). Plates were incubated on the heating blocks at 37° C. for 30 min. At the end of the incubation 10 μl PrestoBlue reagent (Invitrogen) were added to each well, plates were sealed with black seal, followed by incubation at 37° C. for 10 min with gentle shaking (150 rpm). Subsequently, plates were placed at room temperature for 20-30 min. Plates were read immediately after on an Envision Fluorescence reader (Perkin Elmer) with excitation at 535 nm and emission at 630 nm. Test compound titration curves were fitted to a four-parameter sigmoidal curve after normalizing the effect of the test compound to the effect of the positive control (4 10^−4 M PEP0005/ingenol mebutate). AbsEC50 denotes the concentration of test compound producing 50% effect.

Row | SMILES | EC50 [1] | EC50 [2] | EC50 [3]
1 | CC1=C[C@]23C(=O)[C@@H](C=C(CO)[C@@H](O)[C@]2(O)[C@H]1OC(=O)c1ccccc1Br)[C@H]1[C@@H](C[C@H]3C)C1(C)C [Compound 321, Ingenol 3-(2-bromo-benzoate)] | < 20 nM | < 20 nM | < 150000 nM
2 | CC1=C[C@]23C(=O)[C@@H](C=C(CO)[C@@H](O)[C@]2(O)[C@H]1OC(=O)c1ccccc1-c1ccccc1)[C@H]1[C@@H](C[C@H]3C)C1(C)C [Compound 320, Ingenol 3-(2-phenyl-benzoate)] | < 20 nM | < 20 nM | < 150000 nM
3 | CC1=C[C@]23C(=O)[C@@H](C=C(CO)[C@@H](O)[C@]2(O)[C@H]1OC(=O)c1ccccc1OC(C)C)[C@H]1[C@@H](C[C@H]3C)C1(C)C [Compound 324, Ingenol 3-(2-isopropoxy-benzoate)] | < 20 nM | < 20 nM | < 150000 nM
4 | CC1=C[C@]23C(=O)[C@@H](C=C(CO)[C@@H](O)[C@]2(O)[C@H]1OC(=O)C1(C)CCCCC1)[C@H]1[C@@H](C[C@H]3C)C1(C)C [Compound 308, Ingenol 3-(1-methyl-cyclohexanecarboxylate)] | < 20 nM | < 20 nM | < 150000 nM
5 | CC1=C[C@]23C(=O)[C@@H](C=C(CO)[C@@H](O)[C@]2(O)[C@H]1OC(=O)c1c(N)cccc1F)[C@H]1[C@@H](C[C@H]3C)C1(C)C [Compound 341, Ingenol 3-(2-amino-6-fluoro-benzoate)] | < 20 nM | < 20 nM | < 150000 nM
6 | COC(=O)C1(C(=O)O[C@H]2C(C)=C[C@]34C(=O)[C@@H](C=C(CO)[C@@H](O)[C@]23O)[C@H]2[C@@H](C[C@H]4C)C2(C)C)CC1 [Compound 306, Ingenol 3-(1-methoxycarbonyl-cyclopropylcarboxylate)] | > 100 nM | 20 to 100 nM | > 350000 nM
7 | COc1cccc(NCc2ccccc2)c1C(=O)O[C@H]1C(C)=C[C@]23C(=O)[C@@H](C=C(CO)[C@@H](O)[C@]12O)[C@H]1[C@@H](C[C@H]3C)C1(C)C [Compound 333, Ingenol 3-(2-benzylamino-6-methoxy-benzoate)] | < 20 nM | 20 to 100 nM | < 150000 nM
8 | CNc1cccc(F)c1C(=O)O[C@H]1C(C)=C[C@]23C(=O)[C@@H](C=C(CO)[C@@H](O)[C@]12O)[C@H]1[C@@H](C[C@H]3C)C1(C)C [Compound 343, Ingenol 3-(2-fluoro-6-methylamino-benzoate)] | < 20 nM | < 20 nM | < 150000 nM
9 | C=CCOc1cccc(C)c1C(=O)O[C@H]1C(C)=C[C@]23C(=O)[C@@H](C=C(CO)[C@@H](O)[C@]12O)[C@H]1[C@@H](C[C@H]3C)C1(C)C [Compound 326, Ingenol 3-(2-allyloxy-6-methyl-benzoate)] |  | < 20 nM | < 150000 nM
10 | COc1cc(C)c(C(=O)O[C@H]2C(C)=C[C@]34C(=O)[C@@H](C=C(CO)[C@@H](O)[C@]23O)[C@H]2[C@@H](C[C@H]4C)C2(C)C)c(OC)c1 [Compound 329, Ingenol 3-(2,4-dimethoxy-6-methyl-benzoate)] |  | < 20 nM | < 150000 nM
11 | CC1=C[C@]23C(=O)[C@@H](C=C(CO)[C@@H](O)[C@]2(O)[C@H]1OC(=O)c1c(C)cccc1O)[C@H]1[C@@H](C[C@H]3C)C1(C)C [Compound 327, Ingenol 3-(2-hydroxy-6-methyl-benzoate)] |  | < 20 nM | 150000 to 350000 nM
12 | CC1=C[C@]23C(=O)[C@@H](C=C(CO)[C@@H](O)[C@]2(O)[C@H]1OC(=O)c1c(C)cccc1Cl)[C@H]1[C@@H](C[C@H]3C)C1(C)C [Compound 328, Ingenol 3-(2-chloro-6-methyl-benzoate)] |  | < 20 nM | < 150000 nM
